Test results reported in patent publication US20100104546A1, “MODULATORS OF ANTIGEN-DEPENDENT T CELL PROLIFERATION” (CHILDREN, YOUTH AND WOMEN'S HEALTH SERVICE, priority 2007, published 2010).

Tested on: splenic T cells and MHC class II cells
Experiment: Co-culture of enriched splenic T cells and MHC class II cells, SRBC-induced proliferation
Format: in vivo, mice
Conditions: 80 mg/kg IP, 3 days
Experimental: (A) β-oxa-21:3n-3 (80 mg/kg) or vehicle was injected once intraperitoneally to 5 days SRBC-sensitized mice. After the indicated time period spleens were removed and cell suspensions were incubated in the presence or absence of SRBC for 3 days. Thymidine incorporation for final 16 hours of culture was determined. Percent inhibition of proliferation by β-oxa-21:3n-3 compared to vehicle injected animals are depicted against duration of exposure. (B) β-oxa-21:3n-3 (80 mg/kg) or vehicle was injected once intraperitoneally to 5 days SRBC-sensitized mice. After two hours spleens were removed and T cell and MHC II positive cells were enriched using MACS magnetic beads. As indicated, vehicle and β-oxa-21:3n-3 injected animal's enriched cells were then co-cultured in the presence or absence of SRBC for 3 days. Thymidine incorporation for final 16 h of culture was determined. Splenocytes proliferation is plotted versus the type of co-cultured cells.
In co-culture experiments negative selection purification systems were utilized to ensure isolation of untouched cells to avoid side effects on cell viability and activity. […] For accuracy in cell counts and cell viability, the enriched cells were also inspected by hemocytometer and then counted using Cell-Dyne 3500R (ABBOTT, Inc. MA) and then co-cultured. […]

**Q.** `CC/C=C\C/C=C\C/C=C\CCCCCCCCOCC(=O)O` [β-oxa-21:3n-3] was tested. Which “splenocyte proliferation, MHC class II cells from treated animals co-cultured with T cells from either treated or vehicle animals” value did it give?
**A.** no suppression

**Q.** And the “splenocyte proliferation, T cells from treated animals co-cultured with MHC class II cells from treated or vehicle animals” value?
**A.** suppressed
